In US20220028483A1, “SYSTEMS AND METHODS FOR CLASSIFYING TUMORS” (PRESIDENT AND FELLOWS OF HARVARD COLLEGE, priority 2018, published 2022):

Tested on: breast cancer cell lines
Experiment: Drug response (IC50, GDSC data) of breast cancer cell lines classified Signature 3-positive or -negative by SigMA
Format: cell-based
Conditions: five Signature 3-positive vs twelve Signature 3-negative breast cancer cell lines; p=0.044, Kolmogorov-Smirnov test
From the text: To test the hypothesis that the presence of Signature 3 indicates susceptibility to PARP inhibition, the response of diverse cancer cell lines was examed to the two popular PARP inhibitors olaparib and velirapib (Supplementary Methods Section 12). The disclosed SigMA example algorithm was first applied to 700 cell lines from the Cancer Cell Line Encyclopedia (CCLE) project (Basu et al., 2013) to identify those with Signature 3. Mutation calls from a 1651-gene panel and copy number calls from single-nucleotide polymorphism (SNP) arrays were available for each cell line. In applying SigMA, a stringent filter was used to discriminate the cell lines with Signature 3 mutations from those without Signature 3 but with a large number of in vitro culture-associated mutations (Online Methods and Supplementary Methods Section 12). Also, cell lines with MSI signatures were removed to minimize their confounding effect (see Vilar Sanchez et al. (2009), and Supplementary FIG. 6f). […]
Among 1074 cell lines in total, the mutational spectra of 700 cell lines were analyzed of major tumor types with SigMA, but only 136 of these had drug response data for either olaparib or veliparib. […]

fold decrease of IC50 values in Signature 3-positive vs Signature 3-negative cell lines: 2.6 fold
Structure (SMILES): O=C(c1cc(Cc2n[nH]c(=O)c3ccccc23)ccc1F)N1CCN(C(=O)C2CC2)CC1 [olaparib]
